In ChEMBL document CHEMBL4840331, “Configurational Assignment of a Flexible Benzo[g]isochromene Stereodiad from Rubia philippinensis and Inhibition of Soluble Epoxide Hydrolase Activity” (J Nat Prod, 2021) one finds IC50 data, which are given here for one molecule.

By IC50 is commonly meant the point on the concentration scale where inhibition reaches its midpoint. A higher IC50 goes with weaker potency in that assay.

The structures appear in SMILES notation.

The target of this test is T1, Bifunctional epoxide hydrolase 2 (Homo sapiens, UniProt P34913).
T1 sequence (P34913 whole entry): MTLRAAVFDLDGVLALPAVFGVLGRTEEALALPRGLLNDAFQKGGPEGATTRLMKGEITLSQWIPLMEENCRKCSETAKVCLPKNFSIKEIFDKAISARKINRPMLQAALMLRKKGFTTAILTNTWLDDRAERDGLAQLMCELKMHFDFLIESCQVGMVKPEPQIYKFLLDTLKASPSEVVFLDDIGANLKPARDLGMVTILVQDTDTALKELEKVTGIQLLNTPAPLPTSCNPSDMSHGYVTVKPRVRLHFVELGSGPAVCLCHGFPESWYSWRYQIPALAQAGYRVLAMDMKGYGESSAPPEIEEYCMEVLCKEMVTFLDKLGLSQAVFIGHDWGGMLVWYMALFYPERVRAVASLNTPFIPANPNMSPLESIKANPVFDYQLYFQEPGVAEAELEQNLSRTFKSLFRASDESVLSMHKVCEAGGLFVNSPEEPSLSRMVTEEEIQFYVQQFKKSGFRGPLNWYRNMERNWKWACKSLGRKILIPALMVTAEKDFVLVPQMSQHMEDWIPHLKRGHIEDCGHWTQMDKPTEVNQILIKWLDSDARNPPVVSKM
In words: Inhibition of sEH (unknown origin) expressed in baculovirus expression system incubated for 1 hr.

Molecule `C[C@@H](C(=O)O)[C@H]1Cc2c(c(O)c3ccccc3c2O[C@@H]2O[C@H](CO)[C@@H](O)[C@H](O)[C@H]2O)C(=O)O1` yielded an IC50 of 600 nM.
